# Data reported in patent US20090297545A1, “IMMUNOMODULATORY DAIRY PEPTIDES AND USES THEREOF” (Universite Laval, priority 2008, published 2009).
# Marks after values point to notes of the source that are not given here.
# Legend:
# Assay type in all cases: cell-based, BALB/c mice
# murine splenocytes [1] = assay: Cytokine profile of splenocyte supernatants, RayBio Mouse Cytokine Antibody Array; conditions: peptide 2000 μg/mL + ConA 0.5 μg/mL, 72 h; Cells + ConA = 1
# Method: Cytokine analyses. After 72 hours, the supernatants from the splenocyte cultures with the cells, cells+ConA (0.5 μg/mL), and each of the peptides (2000 μg/mL) in the presence of ConA (0.5 μg/mL) were collected and stored at −20° C. until used for the cytokine detection assay. A cytokine profile analysis was performed by using the RayBio Mouse Cytokine Antibody Array G series 2 (RayBiotech, Inc., Norcross, Ga.), in order to obtain semi-quantitative levels of 32 different growth factors, cytokines and chemokines (Table 7).
# Incubation protocol, signal detection, and interpretation of the data were performed according to manufacturer instructions. Results were expressed as the relative quantity of cytokines detected in the culture supernatants calculated according to the following equation: […]
# murine splenocytes [2] = assay: In vitro murine splenocyte proliferation assay (Alamar Blue), Example III
# Method: In vitro murine splenocyte proliferation assay. The impact of whey peptides on splenocyte proliferation was assessed as follow. Spleens from 6-week-old female BALB/c mice (Charles River, St-Constant, QC, Canada) were removed, mechanically disrupted in complete RPMI-1640 medium (RPMI-1640 medium supplemented with 2 mmol L^−1 L-glutamine (Wisent, St-Bruno, QC, Canada), 10% foetal calf serum (FCS, Wisent), 50 μmol L^−1 mercaptoethanol (Sigma-Aldrich), and 100 μg mL^−1 of penicillin/streptomycin (Wisent), and then filtered through 70 μm cell strainer (BD Falcon, Bedford, Mass., USA) under aseptic conditions. Erythrocytes were lysed by osmotic shock using 0.87% NH4Cl (Sigma-Aldrich) for 2 min at 37° C., then cells were washed 3 times at 4° C. with complete RPMI. They were stained with 0.4% trypan blue (Celigro, Mediatech, Washington, D.C., USA) and counted using a Malassez chamber. The cell suspension was then adjusted to 1.25×10^6 viable cells mL^−1 in RPMI medium.
# The cells (100 μL) were added to the wells of 96-well round-bottomed microplates containing 50 μL of RPMI, or 50 μL of peptide solutions. Various concentrations (10-2000 μg mL^−1) of the solutions, which were prepared in complete RPMI and adjusted to pH 7, were added to the wells. The same experiments were also performed in the presence of ConA (0.5 μg mL^−1) to evaluate the effects of the products on ConA-stimulated cells. The microplates with and without ConA were incubated for 72 h and 96 h, respectively. Cell proliferation was evaluated by the reduction of the fluorochrome Alamar Blue™ (BioSource international, Camarillo, Calif., USA), which was added to the wells (20 μL) for the last 24 h of the incubation periods. The fluorescence of the supernatants was monitored at an excitation wavelength of 544 nm and an emission wavelength of […] using a fluorometer (Fluoroscan Ascent, Thermo Electron Inc., Milford, Mass., USA). Data are expressed as a stimulation index (SI).
# murine splenocytes [3] = assay: Ex vivo murine splenocytes proliferation assay (Alamar Blue), Example I; conditions: for Stimulation index, proliferation of murine splenocytes in the presence of Concavanalin A: ConA 0.5 μg/mL; for Stimulation index, proliferation of resting murine splenocytes: without ConA
# Method: Ex vivo murine splenocytes proliferation assay. The splenocytes were isolated from 6- to 12-weeks-old female BALB/c mice (Charles River, St-Constant, QC, Canada) and cultured in the absence and presence of suboptimal concentration of ConA (0.5 μg/mL). The peptides were solubilized in complete RPMI medium, agitated overnight at 4° C. then the solutions were adjusted to pH 7. Thereafter, the peptide solutions were added at various final concentrations (10-2000 μg/mL, protein basis) to the wells of 96-well round-bottomed microplates, which were incubated at 37° C. at 80% relative humidity in a 5% CO2 atmosphere for 72 h (with ConA) or 96 h (without ConA). Cell proliferation was evaluated by the reduction of the fluorochrome Alamar Blue™ (BioSource international, Camarillo, Calif., USA), which was added into the wells for the last 24 h of the incubation periods. The fluorescence of the supernatants was monitored at an excitation wavelength of 560 nm and an emission wavelength of 590 nm using a fluorometer (Fluoroscan Ascent, Thermo Electron Inc., Milford, Mass., USA). The assays were performed in triplicate (three wells per sample) and data are expressed as stimulation indices (SI), and calculated using the following equations: […]
# murine splenocytes [4] = assay: Cytokine secretion in splenocyte culture supernatants by ELISA, Example I
# Method: Cytokine analysis. The supernatants from 72 h-splenocytes cultures were collected and their cytokine content was measured. The optimal incubation times were determined from preliminary assays with peptide fractions. The levels of IL-4, IL-10 and IFN-γ were determined using commercial ELISA kits (BioLegend, San Diego, Calif., USA) according to the manufacturer's instructions. Interleukin-2 levels were also measured by ELISA using a commercial kit (BioSource International, Camarillo, Calif., USA) according to the manufacturer's instructions. The results are the means of four or more assays (three wells per sample). The detection limits for IL-2, IL-4, IL-10 and IFN-γ were <8.0, <1.0, <30.0 and <4.0 pg/mL, respectively.
# Cytokine analysis were performed at concentration leading to optimal spleen cells proliferation of peptide β-Lg f139-148 (SEQ ID NO. 1) (2000 μg/mL) as reported in Tables 2 and 3. The sequence β-Lg f78-83 (SEQ ID NO. 10), resulting in no effect on the cytokine secretion of resting- and ConA-stimulated murine splenocytes (results not shown), was used as control at concentration of 10 μg/mL for statistical analysis. The effects of the selected peptide on cytokine secretion from splenocytes cultured in the absence and presence of 0.5 μg/mL of ConA are shown in Table 5.
# [5] = splenocytes with ConA 0.5 μg mL^−1, peptide 2000 μg mL^−1
# [6] = splenocytes without ConA, peptide 2000 μg mL^−1
Substance,"Stimulation index, proliferation of murine splenocytes in the presence of Concavanalin A (murine splenocytes [3]; peptide 10 μg mL^−1, 72 h)","Stimulation index, proliferation of resting murine splenocytes (murine splenocytes [3]; peptide 10 μg mL^−1, 96 h)","Stimulation index, proliferation of murine splenocytes in the presence of Concavanalin A (murine splenocytes [3]; peptide 100 μg mL^−1, 72 h)","Stimulation index, proliferation of resting murine splenocytes (murine splenocytes [3]; peptide 100 μg mL^−1, 96 h)","Stimulation index, proliferation of murine splenocytes in the presence of Concavanalin A (murine splenocytes [3]; peptide 500 μg mL^−1, 72 h)","Stimulation index, proliferation of resting murine splenocytes (murine splenocytes [3]; peptide 500 μg mL^−1, 96 h)","Stimulation index, proliferation of murine splenocytes in the presence of Concavanalin A (murine splenocytes [3]; peptide 1000 μg mL^−1, 72 h)","Stimulation index, proliferation of resting murine splenocytes (murine splenocytes [3]; peptide 1000 μg mL^−1, 96 h)","Stimulation index, proliferation of murine splenocytes in the presence of Concavanalin A (murine splenocytes [3]; peptide 2000 μg mL^−1, 72 h)","Stimulation index, proliferation of resting murine splenocytes (murine splenocytes [3]; peptide 2000 μg mL^−1, 96 h)",also measured
GLDIQK (listed as Homo sapiens) [β-Lg f9-14],–,–,–,–,–,–,–,–,–,–,"Relative quantity of IFN-γ in supernatant (murine splenocytes [1]): 1.7; Relative quantity of IL-2 in supernatant (murine splenocytes [1]): 2.6; Relative quantity of IL-3 in supernatant (murine splenocytes [1]): 1.0; Relative quantity of IL-4 in supernatant (murine splenocytes [1]): 1.4; Relative quantity of IL-17 in supernatant (murine splenocytes [1]): 1.1; Relative quantity of RANTES in supernatant (murine splenocytes [1]): 1.0; Relative quantity of VEGF in supernatant (murine splenocytes [1]): 2.0; Effect on proliferation of resting splenocytes (murine splenocytes [2]; 10-2000 μg/mL, without ConA): only a small stimulation at the highest concentration; Effect on splenocyte proliferation in the presence of ConA at higher concentrations (murine splenocytes [2]; ConA 0.5 μg/mL): lost their stimulating capacity"
DAQSAPLR [β-Lg f33-40],–,–,–,–,–,–,–,–,–,–,Relative quantity of IFN-γ in supernatant (murine splenocytes [1]): 0.7; Relative quantity of IL-2 in supernatant (murine splenocytes [1]): 0.6; Relative quantity of IL-3 in supernatant (murine splenocytes [1]): 0.1; Relative quantity of IL-4 in supernatant (murine splenocytes [1]): 0.7; Relative quantity of IL-17 in supernatant (murine splenocytes [1]): 0.6; Relative quantity of RANTES in supernatant (murine splenocytes [1]): 0.4; Relative quantity of VEGF in supernatant (murine splenocytes [1]): 0.8
"VAGTWY (UniProt P02754 31-36, looked up, fragment) [β-Lg f15-20]",1.65,1.01,1.71,1.12*,1.67,1.46**,1.78,1.65**,1.77,1.42**,–
ALPMHIR (listed as Homo sapiens) [β-Lg f142-148],2.32,1.16,2.30,1.17,2.36,1.37**,2.49**,1.61**,2.63**,1.73**,–
RELKDLK [α-La f10-16],1.85,1.06,1.95,1.19,1.95,1.47**,2.08,1.81**,2.26**,1.97**,–
IDALNENK [β-Lg f84-91],2.20,0.99,2.27,1.08,2.24,1.20*,2.18,1.22*,2.16,1.27**,–
"EILLQK (UniProt P02754 71-76, looked up, fragment) [β-Lg f55-60]",1.96,1.05,1.92,1.09,1.98,1.16,1.93,1.54**,2.34**,1.54**,–
VLVLDTDYKKYLLF (listed as Homo sapiens) [β-Lg f92-105],1.92,1.00,1.92,1.07,2.27**,1.15**,2.37**,1.31**,2.69**,1.55**,–
ALKALPMHIR (listed as Homo sapiens) [β-Lg f139-148],2.28,1.08*,2.24,1.17**,2.36*,1.35**,2.62**,1.53**,2.73**,1.77**,IFN-γ secretion in supernatant (murine splenocytes [4]; [5]): 717.5** pg mL^−1; IL-2 secretion in supernatant (murine splenocytes [4]; [5]): 15.8 pg/mL; IL-4 secretion in supernatant (murine splenocytes [4]; [5]): 3.0** pg mL^−1; IL-10 secretion in supernatant (murine splenocytes [4]; [5]): <30.0 pg/mL; IFN-γ secretion in supernatant (murine splenocytes [4]; [6]): 81.3** pg mL^−1; IL-2 secretion in supernatant (murine splenocytes [4]; [6]): 9.3 pg/mL; IL-4 secretion in supernatant (murine splenocytes [4]; [6]): <1.0 pg/mL; IL-10 secretion in supernatant (murine splenocytes [4]; [6]): <30.0 pg/mL
